The values that follow come from BindingDB's records for doi:10.1016/j.bmcl.2007.12.038 (St. Jude Children'S Research Hospital, 2008).

The nature of assay [1]: Binding affinity to GST tagged human CFTR PDZ2 domain.
A short description of assay [2]: Binding affinity to GST tagged human beta 2 adrenergic receptor PDZ1 domain.

The term IC50 denotes the point on the concentration scale where inhibition reaches its midpoint. For `CCCCC(O)c1[nH]c2cc(C)c(C(=O)O)cc2c1CCc1ccccc1` (stereo unspecified) [2-(1-hydroxypentyl)-6-methyl-3-phenethyl-1H-indole-5-carboxylic acid], the IC50 in assay [1] was 160 µM; in assay [2], 1540 µM.

As for `Cc1cc2[nH]c(C(O)CCCC(=O)O)c(CCc3ccccc3)c2cc1C(=O)O` (stereo unspecified) [2-(4-carboxy-1-hydroxybutyl)-6-methyl-3-phenethyl-1H-indole-5-carboxylic acid], the IC50 amounted to 330 µM in assay [1] and 777 µM in assay [2].

With `CCCCCc1c(CO)c2cc(C)c(C(=O)O)cc2n1CCc1ccccc1` [3-(hydroxymethyl)-5-methyl-2-pentyl-1-phenethyl-1H-indole-6-carboxylic acid], the results for the IC50 in assay [1] and in assay [2] were 380 µM and 280 µM, respectively.
